Converted amounts (≈) assume the structure as drawn. The source made the active and inactive calls. The rule behind the calls is not given here.
Legend:
Histone deacetylase 2 = Histone deacetylase 2 (Homo sapiens, UniProt Q92769); experiment: Inhibition of HDAC2 (unknown origin) using Ac-Leu-Gly-Lys(Ac)-AMC as substrate preincubated for 5 mins followed by substrate addition for 30 mins and measured following trypsin addition for 30 mins by fluorescence based analysis
4T1 [1] = experiment: Antitumor immunity against mouse 4T1 cells implanted in Balb/c mouse assessed as increase in CD8+ T cells in tumor tissue at 50 mg/kg, po administered daily for 15 days by flow cytometry relative to SAHA; type: functional; conditions: time 15 day
MDA-MB-231 [2] = experiment: Induction of immunogenic cell death-associated DAMP release in human MDA-MB-231 cells assessed as increase in extracellular HMGB1 release by mesuring increase in HMGB1 level in medium supernatant at 10 uM incubated for 24 hrs by ELISA; type: functional, cell-based
[3] = Chemical stability of the compound in PBS buffer at pH 7.4 measured after 10 days; type: physicochemical; conditions: time 10 day, read-out: Stability
4T1 [4] = experiment: Antitumor immunity against mouse 4T1 cells implanted in Balb/c mouse assessed as increase in CD40+ dendritic cells in tumor tissue at 50 mg/kg, po administered daily for 15 days by immunohistochemistry relative to SAHA; type: functional; conditions: time 15 day
[5] = Toxicity against Balb/c mouse implanted with mouse 4T1 cells assessed as effect on body weight changes at 25 to 50 mg/kg, po administered daily for 15 days; type: organism-based; conditions: in vivo, 360 h, dose 25-50 mg/kg, time 15 day
[6] = Aqueous solubility of the compound in aqueous buffer at pH 7.4; type: physicochemical
Histone deacetylase 5 = Histone deacetylase 5 (Homo sapiens, UniProt Q9UQL6); experiment: Inhibition of HDAC5 (unknown origin) using Ac-Leu-Gly-Lys(tfa)-AMC as substrate preincubated for 5 mins followed by substrate addition for 30 mins and measured following trypsin addition for 30 mins by fluorescence based analysis
Chain of Histone deacetylase 5 (Q9UQL6 whole entry): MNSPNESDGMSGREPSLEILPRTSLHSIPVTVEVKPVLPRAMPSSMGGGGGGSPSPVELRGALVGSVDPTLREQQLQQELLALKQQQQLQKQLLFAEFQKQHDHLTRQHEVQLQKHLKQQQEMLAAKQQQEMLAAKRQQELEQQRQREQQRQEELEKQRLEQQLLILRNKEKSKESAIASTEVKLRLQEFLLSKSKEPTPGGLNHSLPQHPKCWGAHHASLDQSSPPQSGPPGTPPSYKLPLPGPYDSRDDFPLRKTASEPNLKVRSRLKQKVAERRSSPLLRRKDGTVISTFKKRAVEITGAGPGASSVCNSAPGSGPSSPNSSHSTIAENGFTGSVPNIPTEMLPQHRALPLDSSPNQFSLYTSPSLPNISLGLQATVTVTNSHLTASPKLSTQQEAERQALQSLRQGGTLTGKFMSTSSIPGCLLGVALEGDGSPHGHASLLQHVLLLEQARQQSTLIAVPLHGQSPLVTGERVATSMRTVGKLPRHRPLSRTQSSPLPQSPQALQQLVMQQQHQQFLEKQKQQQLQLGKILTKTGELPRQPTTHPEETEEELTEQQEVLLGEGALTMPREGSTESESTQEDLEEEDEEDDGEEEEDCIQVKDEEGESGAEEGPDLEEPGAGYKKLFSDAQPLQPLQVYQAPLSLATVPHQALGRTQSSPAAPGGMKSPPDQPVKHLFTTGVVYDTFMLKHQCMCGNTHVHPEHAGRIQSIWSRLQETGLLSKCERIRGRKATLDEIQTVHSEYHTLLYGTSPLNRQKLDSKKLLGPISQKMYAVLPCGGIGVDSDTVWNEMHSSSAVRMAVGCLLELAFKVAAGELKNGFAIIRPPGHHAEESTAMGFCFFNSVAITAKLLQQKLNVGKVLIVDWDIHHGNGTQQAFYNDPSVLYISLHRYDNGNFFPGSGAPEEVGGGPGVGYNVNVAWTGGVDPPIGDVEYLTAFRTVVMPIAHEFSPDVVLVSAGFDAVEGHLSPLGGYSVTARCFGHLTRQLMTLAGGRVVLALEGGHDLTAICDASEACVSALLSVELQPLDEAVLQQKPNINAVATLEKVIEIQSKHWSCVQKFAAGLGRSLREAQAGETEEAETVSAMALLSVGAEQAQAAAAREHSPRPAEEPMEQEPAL

[7] = target: T1, Protein deacetylase HDAC6 (Homo sapiens, UniProt Q9UBN7); experiment: Inhibition of HDAC6 (unknown origin) using Ac-Leu-Gly-Lys(Ac)-AMC as substrate preincubated for 5 mins followed by substrate addition for 30 mins and measured following trypsin addition for 30 mins by fluorescence based analysis
T1 sequence (Q9UBN7 whole entry): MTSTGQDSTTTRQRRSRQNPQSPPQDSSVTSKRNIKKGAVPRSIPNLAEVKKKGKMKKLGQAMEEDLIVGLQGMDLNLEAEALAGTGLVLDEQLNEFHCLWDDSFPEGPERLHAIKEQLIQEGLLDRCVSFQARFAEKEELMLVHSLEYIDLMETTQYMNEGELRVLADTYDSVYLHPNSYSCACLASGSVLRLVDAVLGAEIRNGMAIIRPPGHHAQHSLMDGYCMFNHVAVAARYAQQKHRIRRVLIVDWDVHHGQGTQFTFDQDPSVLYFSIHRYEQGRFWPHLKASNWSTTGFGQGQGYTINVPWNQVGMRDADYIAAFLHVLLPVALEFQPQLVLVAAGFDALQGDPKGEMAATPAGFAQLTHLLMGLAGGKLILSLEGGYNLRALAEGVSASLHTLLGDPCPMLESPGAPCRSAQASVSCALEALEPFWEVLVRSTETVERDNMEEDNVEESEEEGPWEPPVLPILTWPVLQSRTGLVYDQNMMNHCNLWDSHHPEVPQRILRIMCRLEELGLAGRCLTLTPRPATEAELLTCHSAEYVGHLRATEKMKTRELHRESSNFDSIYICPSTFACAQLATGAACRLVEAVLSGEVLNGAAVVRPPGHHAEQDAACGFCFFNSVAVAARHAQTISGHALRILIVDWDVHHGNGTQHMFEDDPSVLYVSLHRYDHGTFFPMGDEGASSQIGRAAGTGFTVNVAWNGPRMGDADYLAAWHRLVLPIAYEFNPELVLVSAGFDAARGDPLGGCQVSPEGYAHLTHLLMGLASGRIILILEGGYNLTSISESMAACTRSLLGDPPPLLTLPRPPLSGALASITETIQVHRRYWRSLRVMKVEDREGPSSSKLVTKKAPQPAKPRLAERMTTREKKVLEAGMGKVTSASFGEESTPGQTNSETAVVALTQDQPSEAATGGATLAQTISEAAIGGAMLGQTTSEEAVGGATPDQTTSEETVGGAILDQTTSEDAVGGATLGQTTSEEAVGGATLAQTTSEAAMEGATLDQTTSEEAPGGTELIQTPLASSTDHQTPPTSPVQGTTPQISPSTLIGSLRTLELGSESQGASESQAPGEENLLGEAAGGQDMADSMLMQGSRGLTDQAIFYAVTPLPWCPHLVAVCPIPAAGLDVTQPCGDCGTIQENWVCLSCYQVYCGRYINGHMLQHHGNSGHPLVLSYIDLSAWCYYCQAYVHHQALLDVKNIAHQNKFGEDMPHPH

Histone deacetylase 4 = Histone deacetylase 4 (Homo sapiens, UniProt P56524); experiment: Inhibition of HDAC4 (unknown origin) using Ac-Leu-Gly-Lys(tfa)-AMC as substrate preincubated for 5 mins followed by substrate addition for 30 mins and measured following trypsin addition for 30 mins by fluorescence based analysis
Chain of Histone deacetylase 4 (P56524 whole entry): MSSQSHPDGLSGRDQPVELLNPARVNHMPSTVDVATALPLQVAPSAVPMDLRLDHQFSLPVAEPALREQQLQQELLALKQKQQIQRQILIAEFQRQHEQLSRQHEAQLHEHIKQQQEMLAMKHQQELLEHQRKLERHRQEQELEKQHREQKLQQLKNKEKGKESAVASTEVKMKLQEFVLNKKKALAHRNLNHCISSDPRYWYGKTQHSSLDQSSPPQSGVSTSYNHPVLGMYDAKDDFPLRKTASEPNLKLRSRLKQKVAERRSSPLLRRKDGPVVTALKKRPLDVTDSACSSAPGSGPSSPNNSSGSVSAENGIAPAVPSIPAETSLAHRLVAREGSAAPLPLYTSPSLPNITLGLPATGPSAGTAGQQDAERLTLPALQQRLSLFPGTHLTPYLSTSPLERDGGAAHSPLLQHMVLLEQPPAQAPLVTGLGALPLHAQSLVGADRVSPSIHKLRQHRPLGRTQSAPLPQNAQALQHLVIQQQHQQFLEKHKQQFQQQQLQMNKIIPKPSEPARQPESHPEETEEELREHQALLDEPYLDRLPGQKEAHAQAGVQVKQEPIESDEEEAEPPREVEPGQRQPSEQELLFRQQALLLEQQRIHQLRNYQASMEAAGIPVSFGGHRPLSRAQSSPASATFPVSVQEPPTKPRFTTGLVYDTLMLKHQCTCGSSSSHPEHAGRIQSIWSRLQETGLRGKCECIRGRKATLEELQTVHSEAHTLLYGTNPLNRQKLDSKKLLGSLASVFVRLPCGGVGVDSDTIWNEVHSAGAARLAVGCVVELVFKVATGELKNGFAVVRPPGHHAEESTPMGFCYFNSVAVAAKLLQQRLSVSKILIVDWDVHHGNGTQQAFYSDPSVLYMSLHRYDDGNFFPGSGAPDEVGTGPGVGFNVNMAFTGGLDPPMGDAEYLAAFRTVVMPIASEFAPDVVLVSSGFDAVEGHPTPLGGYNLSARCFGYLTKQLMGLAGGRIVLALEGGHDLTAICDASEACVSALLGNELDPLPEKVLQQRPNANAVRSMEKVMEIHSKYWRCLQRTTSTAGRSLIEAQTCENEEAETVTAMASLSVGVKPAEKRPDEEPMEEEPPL

Histone deacetylase 3 = Histone deacetylase 3 (Homo sapiens, UniProt O15379); experiment: Inhibition of HDAC3 (unknown origin) using Ac-Leu-Gly-Lys(Ac)-AMC as substrate preincubated for 5 mins followed by substrate addition for 30 mins and measured following trypsin addition for 30 mins by fluorescence based analysis
Chain of Histone deacetylase 3 (O15379 whole entry): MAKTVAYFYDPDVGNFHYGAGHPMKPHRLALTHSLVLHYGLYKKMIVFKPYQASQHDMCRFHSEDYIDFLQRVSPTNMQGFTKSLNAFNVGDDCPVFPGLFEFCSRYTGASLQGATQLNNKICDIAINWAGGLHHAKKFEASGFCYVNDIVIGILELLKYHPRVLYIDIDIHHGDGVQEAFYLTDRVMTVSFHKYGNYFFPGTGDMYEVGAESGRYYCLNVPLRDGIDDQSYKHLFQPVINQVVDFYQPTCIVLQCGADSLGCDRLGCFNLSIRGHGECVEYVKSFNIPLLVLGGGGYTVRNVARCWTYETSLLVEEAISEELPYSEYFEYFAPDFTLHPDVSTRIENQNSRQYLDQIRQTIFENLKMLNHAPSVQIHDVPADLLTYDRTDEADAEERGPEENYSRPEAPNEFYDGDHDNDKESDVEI

[8] = Toxicity against Balb/c mouse implanted with mouse 4T1 cells assessed as effect on morphological changes in heart at 25 to 50 mg/kg, po administered daily for 15 days by Hematoxylin-Eosin staining based analysis; type: organism-based; conditions: in vivo, 360 h, dose 25-50 mg/kg, time 15 day
Histone deacetylase 1 = Histone deacetylase 1 (Homo sapiens, UniProt Q13547); experiment: Inhibition of HDAC1 (unknown origin) using Ac-Leu-Gly-Lys(Ac)-AMC as substrate preincubated for 5 mins followed by substrate addition for 30 mins and measured following trypsin addition for 30 mins by fluorescence based analysis
Chain of Histone deacetylase 1 (Q13547 whole entry): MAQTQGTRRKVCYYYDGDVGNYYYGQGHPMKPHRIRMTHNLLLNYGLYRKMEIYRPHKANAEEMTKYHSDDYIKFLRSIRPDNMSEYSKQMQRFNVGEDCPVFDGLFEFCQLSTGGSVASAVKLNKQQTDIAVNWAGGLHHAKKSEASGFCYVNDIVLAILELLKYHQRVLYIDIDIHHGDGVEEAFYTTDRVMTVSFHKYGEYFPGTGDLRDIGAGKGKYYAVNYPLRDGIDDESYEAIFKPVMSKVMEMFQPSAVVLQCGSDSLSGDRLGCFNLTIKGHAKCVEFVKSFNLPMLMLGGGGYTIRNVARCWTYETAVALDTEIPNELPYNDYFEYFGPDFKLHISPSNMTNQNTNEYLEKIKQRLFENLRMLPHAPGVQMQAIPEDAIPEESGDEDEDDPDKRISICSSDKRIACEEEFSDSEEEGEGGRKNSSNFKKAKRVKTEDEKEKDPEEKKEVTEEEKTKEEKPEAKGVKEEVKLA

MDA-MB-231 [9] = experiment: Cytotoxicity against human MDA-MB-231 cells assessed as reduction in cell viability incubated for 72 hrs by SRB assay; type: functional, cell-based; conditions: MDA-MB-231, 72 h
Mus musculus = experiment: Induction of immunogenic cell death-associated DAMP release in tumor of Balb/c mouse implanted with mouse 4T1 cells assessed as extranuclear diffusion of HMGB1 by measuring decrease in red fluorescence aggregates at 25 to 50 mg/kg, po administered daily for 15 days by immunofluorescence analysis; type: functional, organism-based; conditions: dose 25-50 mg/kg, time 15.0 day
4T1 [10] = experiment: Antitumor activity against mouse 4T1 cells implanted in Balb/c mouse assessed as inhibition of tumor growth rate at 25 mg/kg, po administered daily for 15 days; type: functional; conditions: 4T1, 360 h, time 15 day, read-out: TGI
4T1 [11] = experiment: Antitumor immunity against mouse 4T1 cells implanted in Balb/c mouse assessed as increase in CD8+ T cells in tumor tissue at 25 mg/kg, po administered daily for 15 days by flow cytometry; type: functional, organism-based; conditions: time 15.0 day
MDA-MB-231 [12] = experiment: Induction of immunogenic cell death-associated DAMP release in human MDA-MB-231 cells assessed as increase in CRT expression level at 1 to 10 uM incubated for 24 hrs by western blot analysis; type: functional, cell-based; conditions: dose 1-10 µM
4T1 [13] = experiment: Cytotoxicity against mouse 4T1 cells assessed as reduction in cell viability; type: functional, cell-based

Chain of Histone deacetylase 2 (Q92769 whole entry): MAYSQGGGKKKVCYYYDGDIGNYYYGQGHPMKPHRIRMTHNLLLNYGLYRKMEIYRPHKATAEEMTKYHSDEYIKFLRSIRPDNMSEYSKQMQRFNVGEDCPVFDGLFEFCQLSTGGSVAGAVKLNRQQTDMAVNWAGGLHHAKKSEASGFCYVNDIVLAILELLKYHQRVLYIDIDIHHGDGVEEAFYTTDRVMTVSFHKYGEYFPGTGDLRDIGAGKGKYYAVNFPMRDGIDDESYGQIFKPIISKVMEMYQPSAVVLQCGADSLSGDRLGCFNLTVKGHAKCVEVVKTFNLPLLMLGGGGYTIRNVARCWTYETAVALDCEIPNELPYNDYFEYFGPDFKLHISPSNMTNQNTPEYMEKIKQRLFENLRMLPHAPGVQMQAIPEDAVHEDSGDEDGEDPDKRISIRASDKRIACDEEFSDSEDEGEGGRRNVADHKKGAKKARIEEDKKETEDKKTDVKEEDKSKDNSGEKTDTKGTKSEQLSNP

For O=C(CCCCCCNC(=O)c1cc2cc(-c3cn[nH]c3)ccc2s1)NO, the IC50 (Histone deacetylase 2) was 8.03 nM, the “fold change (FC)” value (4T1 [1]) was 1.21 and the Activity (MDA-MB-231 [2]) was “Active”. For the same molecule, the remaining at 240 h [3] was 98.5%, the “fold change (FC)” value (4T1 [4]) was 2.3 and the Activity [5] was “Non-Toxic”. It also gave a solubility [6] of 0.695 µg/mL (≈ 1.8 µM), an IC50 (Histone deacetylase 5) of over 10000 nM and an IC50 [7] of 0.41 nM. For the same molecule, the IC50 (Histone deacetylase 4) was over 10000 nM, the IC50 (Histone deacetylase 3) was 6.26 nM and the Activity [8] was “Non-Toxic”. For the same molecule, the IC50 (Histone deacetylase 1) was 9.09 nM, the IC50 (MDA-MB-231 [9]) was 370 nM and the Activity (Mus musculus) was “Active”. For the same molecule, the inhibition in vivo at 25 mg/kg (4T1 [10]) was 45%, the Activity (4T1 [11]) was “Active” and the Activity (MDA-MB-231 [12]) was “Active”. For the same molecule, the IC50 (4T1 [13]) was 730 nM.

— ChEMBL document CHEMBL6127128, “Discovery of the First-in-Class Dual-Target ROCK/HDAC Inhibitor with Potent Antitumor Efficacy in Vivo That Trigger Antitumor Immunity” (J Med Chem, 2024)
